Key:
[1] = system: Glomerella lagenarium (Colletotrichum lagenarium); test: Glomerella lagenarium (Colletotrichum lagenarium) / liquid culture (anthracnose); assay type: cell-based; details: Colletotrichum orbiculare, PDB, 24° C., 3-4 days after application, read-out: control of Glomerella lagenarium (inhibition of growth, photometric)
Method: (§1) Glomerella lagenarium (Colletotrichum lagenarium)/Liquid Culture (Anthracnose): Conidia of the fungus from cryogenic storage were directly mixed into nutrient broth (PDB potato dextrose broth). After placing a DMSO solution of test compound into a 96-well microtiter plate at an application rate of 200 ppm, the nutrient broth containing the fungal spores was added. The test plates were incubated at 24° C. and the inhibition of growth is measured photometrically 3-4 days after application.

[2] = system: Mycosphaerella graminicola (Septoria tritici); test: Mycosphaerella graminicola (Septoria tritici) / liquid culture (Septoria blotch); assay type: cell-based; details: Zymoseptoria tritici, PDB, 24° C., 4-5 days after application, read-out: control of Mycosphaerella graminicola (inhibition of growth, photometric)
Method: as §1, with “Mycosphaerella graminicola (Septoria tritici)/Liquid” for “Glomerella lagenarium (Colletotrichum lagenarium)/Liquid”, “(Septoria Blotch):” for “(Anthracnose):”, “was determined” for “is measured”, “4-5” for “3-4”

[3] = system: Puccinia recondita f. sp. Tritici; test: Puccinia recondita f. sp. tritici / wheat / leaf disc preventative (brown rust); assay type: in vivo; details: foliar, wheat leaf segments cv Kanzler, inoculated 1 day after application, assessed 7-9 days after application, read-out: control of Puccinia recondita f. sp. Tritici (percent disease control compared to untreated)
Method: Puccinia recondita f. Sp. Tritici/Wheat/Leaf Disc Preventative (Brown Rust): Wheat leaf segments cultivated variety (cv) Kanzler were placed on agar in 24-well plates and sprayed with formulated test compound diluted in water at an application rate of 200 ppm. The leaf disks were inoculated with a spore suspension of the fungus 1 day after application. The inoculated leaf segments were incubated at 19° C. and 75% relative humidity under a light regime of 12/12 h (light/dark) in a climate cabinet and the activity of a compound was assessed as percent disease control compared to untreated when an appropriate level of disease damage appears in untreated check leaf segments (7-9 days after application).

[4] = system: Thanatephorus cucumeris (Rhizoctonia solani); test: Thanatephorus cucumeris (Rhizoctonia solani) / liquid culture (foot rot, damping-off); assay type: cell-based; details: PDB, 24° C., 3-4 days after application, read-out: control of Thanatephorus cucumeris (inhibition of growth, photometric)
Method: Thanatephorus cucumeris (Rhizoctonia solani)/Liquid Culture (Foot Rot, Damping-Off): Mycelia fragments of a newly grown liquid culture of the fungus are directly mixed into nutrient broth (PDB potato dextrose broth). After placing a DMSO solution of the test compounds into a 96-well microtiter plate at an application rate of 200 ppm, the nutrient broth containing the fungal material was added. The test plates were incubated at 24° C. and the inhibition of growth was determined photometrically 3-4 days after application.

[5] = system: Gaeumannomyces graminis; test: Gaeumannomyces graminis / liquid culture (take-all of cereals); assay type: cell-based; details: PDB, 24° C., 4-5 days after application, read-out: control of Gaeumannomyces graminis (inhibition of growth, photometric)
Method: (§2) Gaeumannomyces graminis/Liquid Culture (Take-all of Cereals): Mycelial fragments of the fungus from cryogenic storage were directly mixed into nutrient broth (PDB potato dextrose broth). After placing a DMSO solution of test compound into a 96-well microtiter plate at an application rate of 200 ppm, the nutrient broth Cp.33, containing the fungal spores is added. The test plates were incubated at 24° C. and the inhibition of growth was determined photometrically 4-5 days after application.

[6] = system: Pyrenophora teres; test: Pyrenophora teres / barley / leaf disc preventative (net blotch); assay type: in vivo; details: foliar, barley leaf segments cv Hasso, inoculated two days after application, assessed 5-7 days after application, read-out: control of Pyrenophora teres (disease control compared to untreated)
Method: Pyrenophora Teres/Barley/Leaf Disc Preventative (Net Blotch): Barley leaf segments cv Hasso are placed on agar in a 24-well plate and sprayed with formulated test compound diluted in water at an application rate of 200 ppm. The leaf segments are inoculated with a spore suspension of the fungus two days after application of the test solution. The inoculated leaf segments are incubated at 20° C. and 65% relative humidity under a light regime of 12/12 h (light/dark) in a climate cabinet and the activity of a compound is assessed as disease control compared to untreated when an appropriate level of disease damage appears in untreated check leaf segments (5-7 days after application).

[7] = system: Botryotinia fuckeliana (Botrytis cinerea); test: Botryotinia fuckeliana (Botrytis cinerea) / liquid culture (gray mould); assay type: cell-based; details: Vogels broth, 24° C., 3-4 days after application, read-out: control of Botryotinia fuckeliana (inhibition of growth, photometric)
Method: as §1, with “Botryotinia Fuckeliana (Botrytis cinerea)/Liquid” for “Glomerella lagenarium (Colletotrichum lagenarium)/Liquid”, “(Gray Mould):” for “(Anthracnose):”, “(Vogels” for “(PDB potato dextrose”, “was determined” for “is measured”

[8] = system: Monographella nivalis (Microdochium nivale); test: Monographella nivalis (Microdochium nivale) / liquid culture (foot rot cereals); assay type: cell-based; details: PDB, 24° C., 4-5 days after application, read-out: control of Monographella nivalis (inhibition of growth, photometric)
Method: as §2, with “Monographella nivalis (Microdochium nivale)/Liquid” for “Gaeumannomyces graminis/Liquid”, “(Foot Rot” for “(Take-all of”, “Conidia” for “Mycelial fragments”, “broth” for “broth Cp.33,”, “was” for “is”

CCCn1c(-n2ncnc2N)nc2cncc(C#N)c21 [Compound 129, 2-(5-amino-1,2,4-triazol-1-yl)-1-propylimidazo[4,5-c]pyridine-7-carbonitrile]
≥ 80%: inhibition at 20 ppm [1]

CCCn1c(-n2ncnc2N)nc2cncc(/C(C)=N/OCC=C(Cl)Cl)c21 [Compound 187]
≥ 80%: inhibition at 20 ppm [2] | pest or weed control at 200 ppm [3] | inhibition at 20 ppm [4] | inhibition at 20 ppm [5]

CCn1c(-n2ncnc2N)nc2cncc(-c3ccc(F)cc3C)c21 [Compound 92, 2-[1-ethyl-7-(4-fluoro-2-methylphenyl)imidazo[4,5-c]pyridin-2-yl]-1,2,4-triazol-3-amine]
≥ 80%: inhibition at 20 ppm [2] | pest or weed control at 200 ppm [6] | inhibition at 20 ppm [4] | inhibition at 20 ppm [7] | inhibition at 20 ppm [5]

CCn1c(-n2ncnc2N)nc2cncc(-c3ccc(F)cc3OC)c21 [Compound 95, 2-[1-ethyl-7-(4-fluoro-2-methoxyphenyl)imidazo[4,5-c]pyridin-2-yl]-1,2,4-triazol-3-amine]
≥ 80%: inhibition at 20 ppm [2] | pest or weed control at 200 ppm [3] | inhibition at 20 ppm [8] | inhibition at 20 ppm [4] | inhibition at 20 ppm [5]

CCCn1c(-n2ncnc2N)nc2cncc(/C(C)=N/OCC=C(C)C)c21 [Compound 189]
≥ 80%: inhibition at 20 ppm [2] | pest or weed control at 200 ppm [3] | inhibition at 20 ppm [8] | inhibition at 20 ppm [4]

Nc1ncnn1-c1nc2cncc(-c3ccccc3F)c2n1C1CCCCC1 [Compound 127, 2-[1-cyclohexyl-7-(2-fluorophenyl)imidazo[4,5-c]pyridin-2-yl]-1,2,4-triazol-3-amine]
≥ 80%: inhibition at 20 ppm [5]

CCn1c(-n2ncnc2N)nc2cncc(-c3cccc(Cl)c3C)c21 [Compound 99, 2-[7-(3-chloro-2-methylphenyl)-1-ethylimidazo[4,5-c]pyridin-2-yl]-1,2,4-triazol-3-amine]
≥ 80%: inhibition at 20 ppm [2] | pest or weed control at 200 ppm [6] | pest or weed control at 200 ppm [3] | inhibition at 20 ppm [4] | inhibition at 20 ppm [7] | inhibition at 20 ppm [5]

CCn1c(-n2ncnc2N)nc2cncc(C#N)c21 [Compound 128, 2-(5-amino-1,2,4-triazol-1-yl)-1-ethylimidazo[4,5-c]pyridine-7-carbonitrile]
≥ 80%: inhibition at 20 ppm [4] | inhibition at 20 ppm [5]

C/C=C/CO/N=C(\C)c1cncc2nc(-n3ncnc3N)n(CC)c12 [Compound 177]
≥ 80%: inhibition at 20 ppm [2] | inhibition at 20 ppm [8] | inhibition at 20 ppm [4] | inhibition at 20 ppm [7]

CCn1c(-n2ncnc2N)nc2cncc(/C(C)=N/OCC=C(C)C)c21 [Compound 157]
≥ 80%: inhibition at 20 ppm [2] | pest or weed control at 200 ppm [6] | pest or weed control at 200 ppm [3] | inhibition at 20 ppm [4] | inhibition at 20 ppm [1]

Nc1ncnn1-c1nc2cnccc2n1C1CC1 [Compound 1, 2-(1-cyclopropylimidazo[4,5-c]pyridin-2-yl)-1,2,4-triazol-3-amine]
≥ 80%: inhibition at 20 ppm [2] | pest or weed control at 200 ppm [6] | inhibition at 20 ppm [4] | inhibition at 20 ppm [7] | inhibition at 20 ppm [5]

CCCn1c(-n2ncnc2N)nc2cncc(/C(C)=N/OC/C=C/Cl)c21 [Compound 183]
≥ 80%: inhibition at 20 ppm [2] | pest or weed control at 200 ppm [6] | pest or weed control at 200 ppm [3] | inhibition at 20 ppm [8] | inhibition at 20 ppm [4] | inhibition at 20 ppm [7] | inhibition at 20 ppm [5]

CCn1c(-n2ncnc2N)nc2cncc(-c3cccc(Cl)c3Cl)c21 [Compound 87, 2-[7-(2,3-dichlorophenyl)-1-ethylimidazo[4,5-c]pyridin-2-yl]-1,2,4-triazol-3-amine]
≥ 80%: inhibition at 20 ppm [2] | pest or weed control at 200 ppm [6] | pest or weed control at 200 ppm [3] | inhibition at 20 ppm [8] | inhibition at 20 ppm [4] | inhibition at 20 ppm [7] | inhibition at 20 ppm [5]

CCCn1c(-n2ncnc2N)nc2cncc(/C(C)=N/OC/C=C(\C)Cl)c21 [Compound 185]
≥ 80%: inhibition at 20 ppm [2] | pest or weed control at 200 ppm [6] | inhibition at 20 ppm [8] | inhibition at 20 ppm [4] | inhibition at 20 ppm [7]

CCn1c(-n2ncnc2N)nc2cncc(-c3cccc(C)c3C)c21 [Compound 82, 2-[7-(2,3-dimethylphenyl)-1-ethylimidazo[4,5-c]pyridin-2-yl]-1,2,4-triazol-3-amine]
≥ 80%: inhibition at 20 ppm [2] | pest or weed control at 200 ppm [6] | pest or weed control at 200 ppm [3] | inhibition at 20 ppm [4] | inhibition at 20 ppm [7] | inhibition at 20 ppm [5]

CCn1c(-n2ncnc2N)nc2cncc(-c3ccc(OC)nc3OC)c21 [Compound 56, 2-[7-(2,6-dimethoxypyridin-3-yl)-1-ethylimidazo[4,5-c]pyridin-2-yl]-1,2,4-triazol-3-amine]
≥ 80%: inhibition at 20 ppm [2] | pest or weed control at 200 ppm [6] | pest or weed control at 200 ppm [3] | inhibition at 20 ppm [4] | inhibition at 20 ppm [7]

CCn1c(-n2ncnc2N)nc2cncc(-c3ccc(OC)cc3OC)c21 [Compound 81, 2-[7-(2,4-dimethoxyphenyl)-1-ethylimidazo[4,5-c]pyridin-2-yl]-1,2,4-triazol-3-amine]
≥ 80%: inhibition at 20 ppm [2] | pest or weed control at 200 ppm [6] | pest or weed control at 200 ppm [3] | inhibition at 20 ppm [8] | inhibition at 20 ppm [4] | inhibition at 20 ppm [7] | inhibition at 20 ppm [5]

CCCCCCO/N=C(\C)c1cncc2nc(-n3ncnc3N)n(CC)c12 [Compound 148]
≥ 80%: inhibition at 20 ppm [2] | pest or weed control at 200 ppm [6] | inhibition at 20 ppm [4] | inhibition at 20 ppm [1]

N#Cc1cncc2nc(-n3ncnc3N)n(C3CCCCC3)c12 [Compound 131, 2-(5-amino-1,2,4-triazol-1-yl)-1-cyclohexylimidazo[4,5-c]pyridine-7-carbonitrile]
≥ 80%: inhibition at 20 ppm [1]
